Values of other authors, collected in patent US8034844B2, “Compositions having a high antiviral efficacy” (The Dial Corporation, priority 2006, dated 2011).

System: rhinoviral infections
Conditions: vs placebo users

II [iodine]
Incidence of colds in users: significantly fewer colds than placebo users
